Assay in all cases: NCI tumour cell line growth inhibition, 48 h
In assay [1] the test system is SF-539 CNS.
Assay [2] deals with SF-268 CNS.
Assay [3] concerns MDA-MB-435.
Assay [4] deals with OVCAR-4 ovarian.
Assay [5] has as its system ACHN renal.
Assay [6] has as its system KM12 colon.
For assay [7], the system named is HCC-2998 colon.
The test system of assay [8] is HT29 colon.
The subject of assay [9] is BT-549 breast.
In assay [10] the test system is NCI-H23 lung.

The record followed here is PubChem BioAssay (NCI).

The structures appear in SMILES notation.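 48-hour exposure; five concentrations; linearly interpolated endpoints. Here, GI50 denotes the concentration required for 50% inhibition of growth. TGI: total growth inhibition.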

Turning to `COc1ccc(C2=C(c3cc(OC)c(OC)c(OC)c3)C(=O)OC2)cc1OC`, the GI50 in assay [1] is 0.301 µM; in [2], 0.0906 µM; in assay [3], less than 0.01 µM; in [4], 2.65 µM; in assay [5], 67.5 µM; in assay [6] it was less than 0.0164 µM. In addition, the GI50 was 0.025 µM in assay [7], 0.0256 µM in assay [8], 12.1 µM in assay [9] and 0.0251 µM in [10]. In addition, the TGI was 4.1 µM in [1]; 30.5 µM in assay [2]; 0.0109 µM in [3]; more than 100 µM in assay [4]; more than 100 µM in assay [5]; 0.299 µM in assay [7]. Further, the figures for the TGI in [8], in assay [9] and in assay [10] were more than 24.3 µM, 97.9 µM and 13.4 µM, respectively.
For `COc1cc2ncn(-c3cc(OCc4ccccc4S(C)(=O)=O)c(C#N)s3)c2cc1OC`, the GI50 was more than 25 µM in assay [1]; more than 22.7 µM in assay [2]; more than 25 µM in assay [3]; more than 25 µM in assay [4]; more than 25 µM in assay [5]; more than 25 µM in [6]. Also, the GI50 in [7], in assay [8], in [9] and in assay [10] was more than 25 µM each time. The TGI in assay [1], in [2], in assay [3], in [4], in [5] and in assay [6] was more than 25 µM throughout. For the same compound, the TGI in assay [7], in assay [8], in assay [9] and in assay [10] was more than 25 µM throughout.
On to `CN(C)CCNC(=O)c1nc([N+](=O)[O-])cn1C`, for which the TGI in [1], in assay [2], in [3], in assay [4], in assay [5] and in assay [6] was more than 100 µM throughout. Also, the TGI in assay [7], in [8], in [9] and in assay [10] was more than 100 µM in each case.
